“Also recorded” adds a separate entry of the source. Structures can show the parent of a compound that is named as a salt. Where two headings read alike, the source gives them in different places.
Legend:
KB-V-1 (resistant) = assay: Cell survival assay with vinblastine, resistant cells; assay type: cell-based, human; details: for IC50: Homo sapiens, KB-V1
Description: where the effect of NCO-700 to enhance cancer cell killing by vinblastine was measured.
In the first two in vitro assays, the drug accumulation assay and the cell survival assay, a human pharyngeal carcinoma cell line (KB-V-1) which is highly resistant to anticancer drugs was used. This cell line was developed by Drs. Ira Pastan and Michael Gottesman of the National Cancer Institute, by step-wise selection in colchicine of drug-resistant cells. The control cancer cell line (KB-3), from which the resistant cell lines were derived, is sensitive to anticancer drugs. The resistant KB-V-1 cell line is approximately 275 times more resistant to vinblastine than the sensitive KB-3 line and has a greatly amplified mdr gene which generates the observed resistance.
The cell survival experiments shown above were performed by plating KB-3 (sensitive) and KB-V-1 (resistant) cells in 32 mm well plastic dishes at a cell density of 300-500 cells per well. Vinblastine and NCO-700 were added 16 hours after the initial cell plating. After 10 days of incubation at 37°, cell colonies were stained and counted.

DU-145 (prostate) = assay: Cancer cell death assay, NCO-700 versus Calpain inhibitor 1; assay type: cell-based, human
Description: (§1) Cell death was measured quantitatively by the release of a marker intracellular enzyme, lactate dehydrogenase (LDH), from damaged or killed cells. LDH released into the extracellular fluid, was measured 24 hours after drug exposure to cancer cells and the enzyme activity was determined by the method of Decker et al. (J. Immunolog Methods 15:61-99, 1988).
Based on Experiment 1 above, the anti-cancer activity of NCO-700 and Calpain inhibitor 1 (N-acetyl-leu-leu-norleucinal, C20 H37 N3 O4) was tested in cancer cell death assays of human cancer cell line DU-145.

[1] = test system: human breast cancer cells; assay: Subrenal capsule (SRC) tumor implant assay, breast cancer; assay type: in vivo, human tumor in BDF/1 mice
Description: FIG. 18 is a graph showing the relationship between the change in size of tumor and the dosage of NCO-700 in a sub-renal capsule assay of human breast cancer in BDF/1 mice.
A tumor implant model, where human tumors were implanted into the renal capsule of mice was performed. The tumors successfully escaped the immune system of the mouse and grew over a six-day period. The advantage of this assay is that the effect of chemotherapeutic agents can be tested in vivo. This model was developed at the University of California, Irvine by Stratton et al. (Gynecologic Oncology 17:185-188, 1984). Human tumors were implanted on day one and were exposed to drug on days two-six. The size of the implant was determined at time zero and at the end of five days of drug treatment, and the difference in size of the implanted tumor at day six, when compared to control animals not exposed to drug, is referred to herein as the delta mean.
The effect of NCO-700 on a breast cancer line was tested in the SRC assay. Three groups of animals (n=18 total) were tested with three concentrations of NCO-700 including, 10 mg/kg, 25 mg/kg and 50 mg/kg. […] These studies confirm the high potential of NCO-700 and related compounds as new anti-neoplastic agents.

HS-578T (breast) = assay: Cancer cell death assay (LDH release), HS-578T; assay type: cell-based, human; details: HS-578T, 25 μM, 1,000 and 1,500 cells/well (FIGS. 34, 35)
Description: (§2) 1. Cancer Cell Death Assay
as §1
A series of analogs related to NCO-700 were assayed in the cancer cell death assay. […] It should be stressed that these analogs were tested alone, without any added chemotherapeutic agent.
Based on Experiment 1 above, the anti-cancer activity of NCO-700, TOP-008, and analogs, TOP-201, 202, 203, 204, 205, 206, 207, and 007, was tested in cancer cell death assays of human cancer cell line HS-578T. In FIGS. 34 (1,000 cells/well) and 35 (1,500 cells/well), a bar graph indicates the activity of a particular analog as measured by the % LDH released (DMSO, dimethyl sulfoxide=control), with higher values of LDH released indicating greater anti-neoplastic activity. All analogs were tested at a concentration of 25 μM.

kidney tumor cells = assay: Human tumor biopsy assay, kidney tumor; assay type: cell-based; details: 20 μM NCO-700 and 0.5 mg/ml adriamycin, 1 hour
Description: 4. Human Tumor Biopsy Assays
where the effect of NCO-700 to enhance killing, by either vinblastine or adriamycin, of cancer cells cultured directly from patient's tumors (Von Hoff et al., Cancer Res. 43:1926-1931, 1983).
For the tumor biopsy assay, primary cell cultures were propagated directly from tumor specimens removed from patients. The cells were grown in suspension culture, treated with adriamycin or vinblastine plus NCO-700, and plated onto soft agar and incubated for two weeks before cell survival was determined.
In a final series of experiments, the effect of NCO-700 on survival of cells cultured directly from biopsied patient tumors was performed. This technique, referred to as a human tumor cloning system, was developed by Von Hoff and associates (Von Hoff et al., Cancer Res. 43:1926-1931, 1983) and was used clinically to predict the course of chemotherapy for these patients. In this method, tumor biopsies were separated into cell suspensions and treated for 1 hour with either 0.4 mg/ml vinblastine (VLB) or 0.5 mg/ml adriamycin (ADR) plus or minus 20 μM NCO-700. The cell suspensions were washed after one hour of incubation and plated with soft agar. After 14 days of incubation at 37°, the percent of colonies surviving was scored. […] In particular, the survival of tumor cells decreased to approximately 1/2 to 1/3 after exposure to NCO-700 and adriamycin. […]

colon cancer cell lines = assay: Cancer cell death assay (LDH release), colon lines; assay type: cell-based, human; details: compound alone, 24 hours
Description: as §2, §1
All cell lines used in the present study were obtained from the American Type Tissue Culture Laboratory and cultured according to their specifications. All were human cancer lines unless otherwise noted. The following cell lines and their tissue of origin used in our studies were:
The first assays performed measured the anti-neoplastic activity of NCO-700, alone, in cell death assays of a wide variety of human cancer cells. The results of these experiments are shown in FIGS. 1-6, where a dose-response curve of NCO-700 versus % LDH release is plotted, with higher values of LDH released indicating greater anti-neoplastic activity (apoptosis).
In FIG. 8, a dose-response curve is shown of the effect of TOP-008 on the killing of breast, prostate and colon cell lines.

CCOC(=O)[C@@H]1O[C@H]1C(=O)N[C@@H](CC(C)C)C(=O)N1CCN(Cc2ccc(OC)c(OC)c2OC)CC1 [NCO-700, Bis[ethyl (2R,3R)-3-[(S)-3-methyl-1-[4-(2,3,4-trimethoxyphenylmethyl)piperazin-1-ylcarbonyl]butylcarbamoyl]oxirane-2-carboxylate] Sulfate]
IC50 (KB-V-1 (resistant); KB-V-1, + 25 μM NCO-700, read-out: vinblastine to kill 50% of cells): 0.148 µg/mL
IC50 (KB-V-1 (resistant); KB-V-1, + 30 μM NCO-700, read-out: level of vinblastine needed to kill 50% of the tumor cells): 0.16 µg/mL
enhancement of killing of resistant cells by vinblastine (KB-V-1 (resistant); drug-resistant cells, with vinblastine): enhanced killing of the drug-resistant cells; also recorded: dramatic effect; also recorded: highly significant increase in the killing of these cancer cells
potency relative to Calpain inhibitor 1 (DU-145 (prostate); DU-145, 100 μM): ~10 fold
anti-cancer activity compared with Calpain inhibitor 1 (DU-145 (prostate); DU-145, FIG. 33): clearly superior to the other inhibitor
effect on tumor size ([1]; 10 mg/kg): no effect
effect on tumor size ([1]; 25 mg/kg): significant anti-neoplastic effect
effect on tumor size ([1]; 50 mg/kg): significant anti-neoplastic effect
anti-neoplastic activity (% LDH released) (HS-578T (breast)): fairly good anti-neoplastic activity
survival of tumor cells decreased to (fraction) (kidney tumor cells): approximately 1/4
anti-neoplastic activity (LDH release) (colon cancer cell lines): partly responsive

Reference: patent US6054437A, “Method for inducing death of neoplastic cells using piperazine derivatives” (Hitachi Chemical Research Center, Inc., priority 1997, dated 2000)
